Source: US20230128889A1, “REL/RELA/SPOT SMALL MOLECULES MODULATORS AND SCREENING METHODS” (priority 2020, published 2023)

Columns and labels:
[1] = test system: Rel hydrolase (HD); experiment: Inhibition of Rel hydrolase activity: decrease of radioactive (p)ppGpp spot on TLC; assay type: biochemical; details: radioactive (p)ppGpp incubated with enzyme, with vs without compound
Experimental: (§1) As indicated above, the “Yes/No” in the 5th and 6th columns of TABLES A to F indicates whether there is, or respectively is not an inhibition of the synthetase (ST) and/or hydrolase (HD) activity. […] The action of a candidate compound is evaluated based on its effect on the production of (p)ppGpp. Therefore, in order to assess the potential influence of a candidate compound on synthesis activity, the enzyme was mixed with GDP or GTP and radioactive ATP to produce (p)ppGpp in absence or presence of the candidate compound. Subsequently, the reaction is developed by thin layer chromatography (TLC). In an alternative assay that enables determining the effect of a compound on the hydrolysis activity, radioactive (p)ppGpp is incubated with the enzyme and any decrease of the (p)ppGpp spot on TLC is evaluated when the assay is conducted in presence of the compound and compared to control conditions where no candidate compound is added during incubation.

[2] = test system: Rel synthetase (ST); experiment: Inhibition of Rel synthetase activity: (p)ppGpp production from GDP or GTP and radioactive ATP, TLC; assay type: biochemical; details: enzyme with GDP or GTP and radioactive ATP, absence or presence of compound
Experimental: as §1

[3] = test system: full-length RelTt; experiment: ppGpp synthesis (synthase) activity of full-length RelTt and variants, 3H-labeled GDP; assay type: biochemical, T. thermophilus; set-up: Synthase activity, Substrate: GDP + ATP, RelTt + IC / Synthase activity, Substrate: GDP + ATP, RelTt + IC + tRNA^Val: unit not given here; details: 40° C.; for Synthase activity, Substrate: GDP + ATP, RelTt + IC + tRNA^Val: with 70S IC and deacylated tRNA^Val; for Synthase activity, Substrate: GDP + ATP, RelTt + IC: with T. thermophilus 70S IC
Experimental: FIG. 1. Biochemical characterization of full-length RelTt. (a) Hydrolysis activity of 100 nM full-length RelTt was assayed in the presence of 0.5 mM 3H-labeled ppGpp substrate either at 4° C. or 40° C. Synthetic activity of 30 nM full-length RelTt was assayed at 40° C. in the presence of either 1 mM ATP (b) or 1 mM APPNP (c), as well 0.3 mM of 3H-labeled GDP and 0.1 mM ppGpp. As indicated on the figure, the reactions were supplemented with 120 nM T. thermophilus 70S IC(MV) added either alone or in combination with 2 μM deacylated E. coli tRNAVal. All experiments were performed in HEPES:Polymix buffer, pH 7.5, 5 mM Mg^2+, either in the presence (a) or absence (b and c) of 0.5 mM Mn^2+. Error bars represent Standard deviations of the turnover estimates by linear regression.

Cc1nc(N)ncc1C(=O)NCc1cccc(-c2nnn[nH]2)c1 [Compound 59]
HD (inhibition of the hydrolase activity) [1]: Yes
ST (inhibition of the synthetase activity) [2]: No

O=[N+]([O-])c1ccccc1OCCn1nnc(-c2ccccc2)n1 [Compound 60]
HD (inhibition of the hydrolase activity) [1]: Yes
ST (inhibition of the synthetase activity) [2]: No

CC(C(=O)O)C(NC(=O)C(C)n1nnc(-c2ccccc2)n1)c1ccccc1 (centres unmarked) [Compound 61]
HD (inhibition of the hydrolase activity) [1]: Yes
ST (inhibition of the synthetase activity) [2]: No

O=[N+]([O-])c1ccc(CSc2nnc(-c3ccccc3F)o2)cc1 [Compound 62]
HD (inhibition of the hydrolase activity) [1]: Yes
ST (inhibition of the synthetase activity) [2]: No

Cc1cc(C(=O)N2CCN(c3ncccn3)CC2)c(N)c([N+](=O)[O-])c1 [Compound 63]
HD (inhibition of the hydrolase activity) [1]: Yes
ST (inhibition of the synthetase activity) [2]: No

O=[N+]([O-])c1ccc(Sc2nnc3c(n2)[nH]c2ccccc23)c([N+](=O)[O-])c1 [Compound 64]
HD (inhibition of the hydrolase activity) [1]: Yes
ST (inhibition of the synthetase activity) [2]: No

Cc1ccccc1-n1c(SCC(=O)NC(=O)c2cccc([N+](=O)[O-])c2)nnc1-c1ccncc1 [Compound 65]
HD (inhibition of the hydrolase activity) [1]: Yes
ST (inhibition of the synthetase activity) [2]: No

Cc1ccc(Nc2nc(N/N=C/c3cc(Cl)ccc3O)nc(Nc3ccc([N+](=O)[O-])cc3)n2)cc1C [Compound 66]
HD (inhibition of the hydrolase activity) [1]: No
ST (inhibition of the synthetase activity) [2]: Yes

Cc1c(Br)c([N+](=O)[O-])nn1CC(=O)Nc1ccc(Cl)cc1Cl [Compound 67]
HD (inhibition of the hydrolase activity) [1]: Yes
ST (inhibition of the synthetase activity) [2]: Yes

O=C(Nc1ccc(Cl)c([N+](=O)[O-])c1)c1ccc(-c2cccc(Cl)c2Cl)o1 [Compound 68]
HD (inhibition of the hydrolase activity) [1]: Yes
ST (inhibition of the synthetase activity) [2]: Yes

CCN(CC)C(=O)CN1CCN(c2ccc(NC(=O)Cc3ccc(C)cc3)c(C(=O)O)c2)CC1 [Compound 69]
HD (inhibition of the hydrolase activity) [1]: Yes
ST (inhibition of the synthetase activity) [2]: Yes

Cc1ccc(CC(=O)Nc2ccc(N3CCN(CC(=O)NC(C)(C)C)CC3)cc2C(=O)O)cc1 [Compound 70]
HD (inhibition of the hydrolase activity) [1]: Yes
ST (inhibition of the synthetase activity) [2]: Yes

O=[N+]([O-])c1nn(Cc2cccc(-c3nc4c5cn[nH]c5ncn4n3)c2)cc1Cl [Compound 71]
HD (inhibition of the hydrolase activity) [1]: Yes
ST (inhibition of the synthetase activity) [2]: Yes

O=C(Cc1ccc(Cl)cc1)Nc1ccc(-c2ccc(NC(=O)Cc3ccc(Cl)cc3)c(C(=O)O)c2)cc1C(=O)O [Compound 72]
HD (inhibition of the hydrolase activity) [1]: Yes
ST (inhibition of the synthetase activity) [2]: Yes

COc1ccc(CC(=O)Nc2ccc(N3CCC(N4CCCCC4)CC3)cc2C(=O)O)cc1 [Compound 73]
HD (inhibition of the hydrolase activity) [1]: Yes
ST (inhibition of the synthetase activity) [2]: Yes

Cc1ccc(CC(=O)Nc2ccc(N3CCC(N4CCCCC4)CC3)cc2C(=O)O)cc1 [Compound 74]
HD (inhibition of the hydrolase activity) [1]: Yes
ST (inhibition of the synthetase activity) [2]: Yes

B1: R249A D272A: RelTt with substitutions R249A and D272A (protein)
chain: MVGADLGLWNRLEPALAYLAPEERAKVREAYRFAEEAHRGQLRRSGEPYITHPVAVAEILAGLQMDADTVAAGLLHDTVEDCGVAPEELERRFGPTVRRIVEGETKVSKLYKLANLEGEERRAEDLRQMFIAMAEDVRIIIVKLADRLHNLRTLEHMPPEKQKRIAQETLEIYAPLAHRLGMGQLKWELEDLSFRYLHPEAFASLSARIQATQEARERLIQKAIHLLQETLARDELLQSQLQGFEVTGAPKHLYSIWKKMEREGKTLEQIYALLAVRVILDPKPAPTRESQALREKQVCYHVLGLVHALWQPIPGRVKDYIAVPKPNGYQSLHTTVIALEGLPLEVQIRTREMHRVAEYGIAAHWLYKEGLTDPEEVKRRVSWLKSIQEWQKEFSSSREFVEAVTKDLLGGRVFVFTPKGRIINLPKGATPVDFAYHIHTEVGHHMVGAKVNGRIVPLSYELQNGEIVEILTSKNAHPSKGWLEFAKTRSAKSKIRQYFRAQERQETLERGQHLLERYLKRRGLPKPTDSQLEEAAKRLSLPPSPEELYLALALNRLTPRQVAEKLYPKALLKPEKPKPQVRNEWGIRLEQDLQAPIRLASCCEPMKGDPILGFVTRGRGVTVHRADCPNLRRLLQGPEADRVIGAYWEGVGGKVVVLEVLAQDRAGLLRDVMQVVAEAGKSALGSETRVLGPLARIRLRLAVQDGEEERILQAVQKVSGVKEARWA
Synthase activity, Substrate: GDP + ATP, RelTt + IC + tRNA^Val [3]: 12.0 ± 2.0
Synthase activity, Substrate: GDP + ATP, RelTt + IC [3]: 8.5 ± 1.0

B2: R249A D272A Y329A: RelTt with substitutions R249A, D272A and Y329A (protein)
chain: MVGADLGLWNRLEPALAYLAPEERAKVREAYRFAEEAHRGQLRRSGEPYITHPVAVAEILAGLQMDADTVAAGLLHDTVEDCGVAPEELERRFGPTVRRIVEGETKVSKLYKLANLEGEERRAEDLRQMFIAMAEDVRIIIVKLADRLHNLRTLEHMPPEKQKRIAQETLEIYAPLAHRLGMGQLKWELEDLSFRYLHPEAFASLSARIQATQEARERLIQKAIHLLQETLARDELLQSQLQGFEVTGAPKHLYSIWKKMEREGKTLEQIYALLAVRVILDPKPAPTRESQALREKQVCYHVLGLVHALWQPIPGRVKDYIAVPKPNGAQSLHTTVIALEGLPLEVQIRTREMHRVAEYGIAAHWLYKEGLTDPEEVKRRVSWLKSIQEWQKEFSSSREFVEAVTKDLLGGRVFVFTPKGRIINLPKGATPVDFAYHIHTEVGHHMVGAKVNGRIVPLSYELQNGEIVEILTSKNAHPSKGWLEFAKTRSAKSKIRQYFRAQERQETLERGQHLLERYLKRRGLPKPTDSQLEEAAKRLSLPPSPEELYLALALNRLTPRQVAEKLYPKALLKPEKPKPQVRNEWGIRLEQDLQAPIRLASCCEPMKGDPILGFVTRGRGVTVHRADCPNLRRLLQGPEADRVIGAYWEGVGGKVVVLEVLAQDRAGLLRDVMQVVAEAGKSALGSETRVLGPLARIRLRLAVQDGEEERILQAVQKVSGVKEARWA
Synthase activity, Substrate: GDP + ATP, RelTt + IC + tRNA^Val [3]: 8.8 ± 0.69
Synthase activity, Substrate: GDP + ATP, RelTt + IC [3]: 10.9 ± 3.6

B3: R249A R277A Y329A: RelTt with substitutions R249A, R277A and Y329A (protein)
chain: MVGADLGLWNRLEPALAYLAPEERAKVREAYRFAEEAHRGQLRRSGEPYITHPVAVAEILAGLQMDADTVAAGLLHDTVEDCGVAPEELERRFGPTVRRIVEGETKVSKLYKLANLEGEERRAEDLRQMFIAMAEDVRIIIVKLADRLHNLRTLEHMPPEKQKRIAQETLEIYAPLAHRLGMGQLKWELEDLSFRYLHPEAFASLSARIQATQEARERLIQKAIHLLQETLARDELLQSQLQGFEVTGAPKHLYSIWKKMEREGKTLEQIYDLLAVAVILDPKPAPTRESQALREKQVCYHVLGLVHALWQPIPGRVKDYIAVPKPNGAQSLHTTVIALEGLPLEVQIRTREMHRVAEYGIAAHWLYKEGLTDPEEVKRRVSWLKSIQEWQKEFSSSREFVEAVTKDLLGGRVFVFTPKGRIINLPKGATPVDFAYHIHTEVGHHMVGAKVNGRIVPLSYELQNGEIVEILTSKNAHPSKGWLEFAKTRSAKSKIRQYFRAQERQETLERGQHLLERYLKRRGLPKPTDSQLEEAAKRLSLPPSPEELYLALALNRLTPRQVAEKLYPKALLKPEKPKPQVRNEWGIRLEQDLQAPIRLASCCEPMKGDPILGFVTRGRGVTVHRADCPNLRRLLQGPEADRVIGAYWEGVGGKVVVLEVLAQDRAGLLRDVMQVVAEAGKSALGSETRVLGPLARIRLRLAVQDGEEERILQAVQKVSGVKEARWA
Synthase activity, Substrate: GDP + ATP, RelTt + IC + tRNA^Val [3]: 5.4 ± 2.1
Synthase activity, Substrate: GDP + ATP, RelTt + IC [3]: 4.5 ± 2.3

B4: R249A R277A: RelTt with substitutions R249A and R277A (protein)
chain: MVGADLGLWNRLEPALAYLAPEERAKVREAYRFAEEAHRGQLRRSGEPYITHPVAVAEILAGLQMDADTVAAGLLHDTVEDCGVAPEELERRFGPTVRRIVEGETKVSKLYKLANLEGEERRAEDLRQMFIAMAEDVRIIIVKLADRLHNLRTLEHMPPEKQKRIAQETLEIYAPLAHRLGMGQLKWELEDLSFRYLHPEAFASLSARIQATQEARERLIQKAIHLLQETLARDELLQSQLQGFEVTGAPKHLYSIWKKMEREGKTLEQIYDLLAVAVILDPKPAPTRESQALREKQVCYHVLGLVHALWQPIPGRVKDYIAVPKPNGYQSLHTTVIALEGLPLEVQIRTREMHRVAEYGIAAHWLYKEGLTDPEEVKRRVSWLKSIQEWQKEFSSSREFVEAVTKDLLGGRVFVFTPKGRIINLPKGATPVDFAYHIHTEVGHHMVGAKVNGRIVPLSYELQNGEIVEILTSKNAHPSKGWLEFAKTRSAKSKIRQYFRAQERQETLERGQHLLERYLKRRGLPKPTDSQLEEAAKRLSLPPSPEELYLALALNRLTPRQVAEKLYPKALLKPEKPKPQVRNEWGIRLEQDLQAPIRLASCCEPMKGDPILGFVTRGRGVTVHRADCPNLRRLLQGPEADRVIGAYWEGVGGKVVVLEVLAQDRAGLLRDVMQVVAEAGKSALGSETRVLGPLARIRLRLAVQDGEEERILQAVQKVSGVKEARWA
Synthase activity, Substrate: GDP + ATP, RelTt ([3]; enzyme alone, triplicate): 2.6 ± 0.6
Synthase activity, Substrate: GDP + ATP, RelTt + IC + tRNA^Val [3]: 10.5 ± 1.8
Synthase activity, Substrate: GDP + ATP, RelTt + IC [3]: 8.6 ± 2
